Measured values published in EP2698385A1, “Detection of synthetic cannabinoids” (priority 2012, dated 2014).

Legend:
Format in all cases: binding, sheep
Antibody to Immunogen II = assay: Competitive ELISA (Example 36), antibody RS1833B12, tracer ESC4555/LK959, standard JWH-018; conditions: Cross-reactants at 100 ng/ml; Antibody to Immunogen II
Method: (§1) An aqueous solution of each immunogen was formulated with Freund's Complete Adjuvant (FCA) to form an emulsion consisting of 2mg/ml* immunogen in 50% (v/v) FCA. Three sheep were immunised with this emulsion (1° immunisation), 0.25ml being intramuscularly injected at each of four sites in the flank of each animal. Subsequent immunizations (boosts) contained 1mg/ml* immunogen. All boosts were emulsified in 50% (v/v) Freund's Incomplete Adjuvant (FIA) and were administered in the same manner as the 1° immunisation, at monthly intervals. Blood sampling took place 7 to 14 days after each boost. *The general procedure for immunogen administration is outlined above, however, it was necessary to deviate from this protocol in some cases, due to reduced immunogen concentrations (Immunogens II, IV, VII and VIII) and/or amount available (Immunogen VIII). Any deviations from the protocol described are outlined in Table 1A below and highlighted in bold. Table 1A: Amount and volume of immunogens administered for primary and subsequent boosts
The appropriate antibody coating dilution was determined using standard ELISA checkerboard techniques. The plate was incubated overnight at 4°C, washed 4 times over 10 minutes with Tris buffered saline containing Tween 20 (TBST) and tapped dry. […] 75µl of conjugate (appropriate hapten-HRP) diluted in Tris buffer (pH 7.2) containing EDTA, D-mannitol, sucrose, thimerosal and BSA, was added to each of the wells. The appropriate dilution of conjugate was also determined using standard ELISA checkerboard techniques. The plate was incubated at 25°C for 1 hour. Excess unbound conjugate was removed by washing 6 times over a 10 minute period with TBST. 125µl of tetramethylbenzidine (TMB) substrate solution was added to each well of the plate that was then incubated for 20 minutes in the dark at room temperature. The reaction was terminated by addition of 125µl 0.2M H2SO4 to each well. The absorbance was then measured at 450nm using a microtiter plate reader. The data are inputted to a computer program called 'KC Junior'. It is a 4 parameter fit curve and allow the calculatation of concentrations between the standard runs.
In a similar manner to that described above, the wells of a 96-well microtiter plate were coated with the IgG fraction of the antiserum raised to Immunogens I or II.
(§2) The data set our in Tables 3 and 4 are generated using antibodies raised against the indicated Immunogens in a competitive binding assay with the indicated tracers, using the indicated standards: Table 2
Using the calibration curves generated and employing a single level of cross reactants, these were used to determine the cross-reactivity of each immunoassay with these substances. These are the standards used for the IC50 and cross-reactivity data generation • Immunogen I - JWH-018 • Immunogen II - JWH-018 • Immunogen IV - JWH-018 • Immunogen VII - JWH-015 • Immunogen VIII - JWH-018 Table 4: Cross reactivity of the competitive ELISAs for synthetic cannabinoids and their metabolites

[1] = system: Antibody to Immunogen VIII; conditions: Cross-reactants at 100 ng/ml; Antibody to Immunogen VIII
Method: as §1
(§3) The wells of an enhanced binding 96 well polystyrene microtiter plate were coated with IgG fraction of antiserum raised to Immunogen I or II, diluted in 10mM Tris, pH8.5 (125µl/well). The appropriate antibody coating dilution was determined using standard ELISA checkerboard techniques. The plate was incubated overnight at 4°C, washed 4 times over 10 minutes with Tris buffered saline containing Tween 20 (TBST) and tapped dry. Standard solutions (JWH-018 for Immunogens I and II) were applied at 0, 0.625, 1.25, 2.5, 5, 10, 20 and 40ng/ml and 50µl of each was added to the appropriate wells. 75µl of conjugate (appropriate hapten-HRP) diluted in Tris buffer (pH 7.2) containing EDTA, D-mannitol, sucrose, thimerosal and BSA, was added to each of the wells. The appropriate dilution of conjugate was also determined using standard ELISA checkerboard techniques. The plate was incubated at 25°C for 1 hour. Excess unbound conjugate was removed by washing 6 times over a 10 minute period with TBST. 125µl of tetramethylbenzidine (TMB) substrate solution was added to each well of the plate that was then incubated for 20 minutes in the dark at room temperature. The reaction was terminated by addition of 125µl 0.2M H2SO4 to each well. The absorbance was then measured at 450nm using a microtiter plate reader. The data are inputted to a computer program called 'KC Junior'. It is a 4 parameter fit curve and allow the calculatation of concentrations between the standard runs. This program is used to calculate the IC50s by dividing the 0ng/ml OD value by 2 and obtaining the concentration value from the curve for this OD.
(§4) In a similar manner to that described above, the wells of a 96-well microtiter plate were coated with the IgG fraction of the antiserum raised to Immunogens IV, VII or VIII. Standard solutions (JWH-018 for Immunogens IV and VIII, JWH-015 for Immunogen VII) were prepared in TBST at 0, 1.25, 2.5, 5, 10, 20, 40 and 80ng/ml and conjugate was employed as detection reagent.
as §2
(§5) A450 = absorbance at 450nm B = absorbance at 450nm at xng/ml standard concentration B0 = absorbance at 450nm at 0ng/ml standard concentration IC50 = standard concentration which produces 50% B/B0
(§6) In order to determine the specificity of the competitive ELISAs, standard solutions of a range of structurally similar synthetic cannabinoids and their metabolites were prepared in TBST. Using the calibration curves generated and employing a single level of cross reactants, these were used to determine the cross-reactivity of each immunoassay with these substances. […]

[2] = system: Antibody to Immunogen VII; conditions: Cross-reactants at 100 ng/ml; Antibody to Immunogen VII
Method: as §1, §3, §4, §2, §5, §6

Antibody to Immunogen IV = conditions: Cross-reactants at 100 ng/ml; Antibody to Immunogen IV
Method: as §1, §3, §4, §2, §5, §6

Antibody to Immunogen I = conditions: Cross-reactants at 100 ng/ml; Antibody to Immunogen I
Method: as §1, §3
In a similar manner to that described above, the wells of a 96-well microtiter plate were coated with the IgG fraction of the antiserum raised to Immunogens I or II. Standard solutions (JWH-018 for Immunogen I and II) were applied at 0, 0.625, 1.25, 2.5, 5, 10, 20 and 40ng/ml and conjugate was employed as detection reagent.
as §2, §5, §6

CC(O)CCCn1cc(C(=O)c2cccc3ccccc23)c2ccccc21 (racemic) [(±)-JWH 018 N-(4-hydroxypentyl) metabolite]
%B/B0 (Antibody to Immunogen II): 53.99%
%B/B0 [1]: 21.94%
%B/B0 [2]: 57.37%
%B/B0 (Antibody to Immunogen IV): 52.29%
%B/B0 (Antibody to Immunogen I): 4.23%

CCCCCn1cc(C(=O)Cc2ccccc2Cl)c2ccccc21 [JWH-203]
%B/B0 [1]: 9.19%
%B/B0 [2]: 99.08%
%B/B0 (Antibody to Immunogen IV): 52.15%
%B/B0 (Antibody to Immunogen I): 72.55%

CCCCCn1cc(C(=O)Cc2ccc(Cl)cc2)c2ccccc21 [JWH-206 (JWH-203 4-chloro isomer), JWH-203 4-chloro isomer]
%B/B0 [1]: 10.55%
%B/B0 [2]: 97.17%
%B/B0 (Antibody to Immunogen IV): 65.63%
%B/B0 (Antibody to Immunogen I): 75.96%

CCCCCn1cc(C(=O)c2c(CC)ccc3ccccc23)c2ccccc21 [JWH-210 2-ethylnaphthyl isomer]
%B/B0 [1]: 73.51%
%B/B0 [2]: 96.13%
%B/B0 (Antibody to Immunogen IV): 53.97%
%B/B0 (Antibody to Immunogen I): 81.37%

CCCCCn1cc(C(=O)c2ccc(CC)c3ccccc23)c2cc(O)ccc21 [JWH-210 5-hydroxyindole metabolite]
%B/B0 [1]: 87.72%
%B/B0 [2]: 100.43%
%B/B0 (Antibody to Immunogen IV): 48.91%
%B/B0 (Antibody to Immunogen I): 83.29%

CCCCCn1cc(C(=O)c2cccc3ccc(CC)cc23)c2ccccc21 [JWH-210 7-ethylnaphthyl isomer or JWH-234, JWH-210 7-ethylnaphthyl isomer]
%B/B0 [1]: 50.90%
%B/B0 [2]: 100.55%
%B/B0 (Antibody to Immunogen IV): 27.07%
%B/B0 (Antibody to Immunogen I): 73.11%

CCc1ccc(C(=O)c2cn(CCCCCC(=O)O)c3ccccc23)c2ccccc12 [JWH-210 N-(5-carboxypentyl) metabolite]
%B/B0 [1]: 96.27%
%B/B0 [2]: 96.07%
%B/B0 (Antibody to Immunogen IV): 85.29%
%B/B0 (Antibody to Immunogen I): 76.77%

CCCCCn1cc(C(=O)c2ccc(CC)c3ccccc23)c2ccccc21 [JWH-210]
%B/B0 [1]: 16.87%
%B/B0 [2]: 96.62%
%B/B0 (Antibody to Immunogen IV): 5.53%
%B/B0 (Antibody to Immunogen I): 91.18%

CCCCCn1cc(C(=O)Cc2ccccc2OC)c2ccccc21 [JWH-250]
%B/B0 [1]: 9.40%
%B/B0 [2]: 97.23%
%B/B0 (Antibody to Immunogen IV): 41.08%
%B/B0 (Antibody to Immunogen I): 78.94%

CCCCCn1cc(C(=O)Cc2ccccc2C)c2ccccc21 [JWH-251]
%B/B0 [1]: 9.12%
%B/B0 [2]: 96.74%
%B/B0 (Antibody to Immunogen IV): 42.02%
%B/B0 (Antibody to Immunogen I): 68.01%

CCCCCn1cc(C(=O)Cc2cccc(OC)c2)c2ccccc21 [JWH-302]
%B/B0 [1]: 7.97%
%B/B0 [2]: 104.92%
%B/B0 (Antibody to Immunogen IV): 45.67%
%B/B0 (Antibody to Immunogen I): 84.66%

CCCCCn1cc(C(=O)c2cccc(OC)c2)c2ccccc21 [RCS-4 3-methoxy isomer]
%B/B0 [1]: 10.95%
%B/B0 [2]: 94.72%
%B/B0 (Antibody to Immunogen IV): 25.65%
%B/B0 (Antibody to Immunogen I): 31.19%

COc1ccc(C(=O)c2cn(CCCC(C)O)c3ccccc23)cc1 (stereo not shown) [RCS-4 N-(4-hydroxypentyl) metabolite]
%B/B0 [1]: 8.89%
%B/B0 [2]: 95.72%
%B/B0 (Antibody to Immunogen IV): 59.16%
%B/B0 (Antibody to Immunogen I): 65.71%

COc1ccc(C(=O)c2cn(CCCCCC(=O)O)c3ccccc23)cc1 [RCS-4 N-(5-carboxypentyl) metabolite]
%B/B0 [1]: 91.97%
%B/B0 [2]: 94.00%
%B/B0 (Antibody to Immunogen IV): 91.44%
%B/B0 (Antibody to Immunogen I): 77.12%

COc1ccc(C(=O)c2cn(CCCCCO)c3ccccc23)cc1 [RCS-4 N-(5-hydroxypentyl) metabolite]
%B/B0 [1]: 19.13%
%B/B0 [2]: 94.55%
%B/B0 (Antibody to Immunogen IV): 61.03%
%B/B0 (Antibody to Immunogen I): 59.51%

CCCCn1cc(C(=O)c2ccc(OC)cc2)c2ccccc21 [RCS-4-C4 homologue]
%B/B0 [1]: 9.54%
%B/B0 [2]: 100.20%
%B/B0 (Antibody to Immunogen IV): 27.17%
%B/B0 (Antibody to Immunogen I): 76.27%

CCCCCn1cc(C(=O)c2ccc(OC)cc2)c2ccccc21 [RCS-4]
%B/B0 [1]: 5.93%
%B/B0 [2]: 93.51%
%B/B0 (Antibody to Immunogen IV): 19.21%
%B/B0 (Antibody to Immunogen I): 80.46%

COc1cccc(CC(=O)c2cn(CCC3CCCCC3)c3ccccc23)c1 [RCS-8 3-methoxy isomer]
%B/B0 [1]: 83.62%
%B/B0 [2]: 93.73%
%B/B0 (Antibody to Immunogen IV): 89.43%
%B/B0 (Antibody to Immunogen I): 93.24%

COc1ccc(CC(=O)c2cn(CCC3CCCCC3)c3ccccc23)cc1 [RCS-8 4-methoxy isomer]
%B/B0 [1]: 100.72%
%B/B0 [2]: 98.21%
%B/B0 (Antibody to Immunogen IV): 90.78%
%B/B0 (Antibody to Immunogen I): 94.94%

COc1ccccc1CC(=O)c1cn(CCC2CCCCC2)c2ccccc12 [RCS-8 (SR-18), RCS-8]
%B/B0 [1]: 88.79%
%B/B0 [2]: 94.57%
%B/B0 (Antibody to Immunogen IV): 85.50%
%B/B0 (Antibody to Immunogen I): 82.65%

COc1ccc(C(=O)c2c(C)n(CCN3CCOCC3)c3ccccc23)cc1 [WIN-48,098 (other name Pravadoline), Pravadoline]
%B/B0 [1]: 97.90%
%B/B0 [2]: 92.41%
%B/B0 (Antibody to Immunogen IV): 91.64%
%B/B0 (Antibody to Immunogen I): 90.05%

CS(=O)(=O)O.Cc1c(C(=O)c2cccc3ccccc23)c2cccc3c2n1[C@@H](CN1CCOCC1)CO3 [Win 55,212-3 mesylate, Win 55,212-3]
%B/B0 [1]: 101.30%
%B/B0 [2]: 32.31%
%B/B0 (Antibody to Immunogen IV): 94.57%
%B/B0 (Antibody to Immunogen I): 34.00%

(+)-CP 55,940
%B/B0 [1]: 95.12%
%B/B0 [2]: 97.15%
%B/B0 (Antibody to Immunogen IV): 91.38%
%B/B0 (Antibody to Immunogen I): 103.25%

(+-)-CP 55,940 [((+-)-CP 55,940)]
%B/B0 [1]: 100.25%
%B/B0 [2]: 100.25%
%B/B0 (Antibody to Immunogen IV): 94.60%
%B/B0 (Antibody to Immunogen I): 100.61%

(-)-CP 55,940
%B/B0 [1]: 97.58%
%B/B0 [2]: 101.15%
%B/B0 (Antibody to Immunogen IV): 93.02%
%B/B0 (Antibody to Immunogen I): 98.27%

JWH 203 3-chloro isomer [JWH 203 3-chloro isomer (JWH-237)]
%B/B0 [1]: 10.34%
%B/B0 [2]: 97.42%
%B/B0 (Antibody to Immunogen IV): 55.09%
%B/B0 (Antibody to Immunogen I): 95.59%

JWH-081 2-methoxynaphthyl isomer [JWH-081 2-methoxynaphthyl isomer or (JWH-267)]
%B/B0 [1]: 58.20%
%B/B0 [2]: 83.43%
%B/B0 (Antibody to Immunogen IV): 27.67%
%B/B0 (Antibody to Immunogen I): 69.58%
